Laboratory results: patent US10875845B2, “Compounds and methods for the treatment of ocular disorders” (Azura Ophthalmics Ltd., priority 2019, dated 2020)

Experiments:
Rabbit Cornea Homogenate = Rabbit Cornea Homogenate Stability Assay (rabbit cornea esterase assay); type: in vitro ADME; conditions: 37° C.
Method: Determining Rabbit Cornea Homogenate stability of the test compounds was performed using HPLC-MS. The assay was performed at two concentrations of Rabbit Cornea Homogenate (0.15 mg/ml and 0.45 mg/ml total protein) so that any hydrolysis observed could be assigned as esterase dependent or not.
Five rabbit corneas (e.g. New Zealand Whites) of approx. 50 mg each were sliced and scraped with a scalpel and tweezers until reduced to small (1-3 mm), thin pieces. These were transferred into a tared vial and accurately weighed, then diluted with 10 volumes aqueous PBS pH7.4
Sample was cooled intermittently on ice and shear homogenized for 3 minutes, then centrifuged for 3 min at 3000 rpm. The supernatant was pipetted off into a vial, and total protein concentration determined at 280 nm. Sample was stored at −78° C.
10 mM Compound stocks were diluted to 100 μM in a 96 deep-well plate: 10 μl of 10 mM Compound stock was added to 990 μl 50 mM HEPES, pH7.5 buffer.
Compounds were further diluted to 10 μM: 100 μl of 100 μM compound was added to 900 μl 50 mM HEPES, pH7.5 buffer.
Esterase homogenate was diluted to 300 ng/μl and 900 ng/μl
A heater shaker was set to 37° C. Into a suitable 96 well plate (Run Plate), 75 μl of 300 or 900 ng/μl esterase homogenate was pipetted into each of the required wells (2 min, 5 min, 10 min, 20 min and 45 min). The plate was sealed and then warmed at 37° C. for 5 min. Another 96 well PCR plate is put on ice (Kill Plate). To this was added 100 μl of MeCN to each well, labelled 0 min, 2 min, 5 min, 10 min, 20 min and 45 min. The plate was covered to minimise evaporation. For the T=0 sample only, to the 100 μl cold MeCN stop solution was added 50 μl of 300 or 900 ng/μl esterase homogenate followed by 50 μl of 10 μM compound solution For the remaining time points, 75 μl of 10 μM compound solution was added to the Run Plate starting from T=45 min row and ending with T=2 min row. At the appropriate time point, 100 μl of the assay mixture was added to the matching kill plate well containing 100 μl of cold MeCN. Samples were analysed as soon as practicable by LCMS (Waters Xevo TQ-S or Micromass Ultima).
Parent conjugate and parent concentrations were determined against appropriate standard response curves and the half-life (T1/2) of the parent conjugate was calculated using the peak area of the parent conjugate at each time point in the linear region of the log—linear plot.

[1] = Aqueous Hydrolysis Stability Assay; type: physicochemical; conditions: 100 μM in 50 mM HEPES pH 7.5 buffer or 1:1 Acetonitrile:Water, room temperature
Method: Determination of aqueous stability of the test compounds was performed using HPLC-MS. A test compound 10 mM stock solution was prepared in DMSO. 10 μl of the DMSO stock solution was dissolved in 990 μl of 50 mM HEPES pH 7.5 buffer or 1:1 (v/v) of Acetonitrile:Water to make a 100 μM solution. Final DMSO concentration was 1%. The solution was kept at room temperature and injected without delay into the LCMS (Waters Xevo TQ-S or Micromass Ultima). Additional injections were performed at appropriate time points.
Half-life (T1/2) of the parent conjugate was calculated using the peak area of the parent conjugate at each time point in the linear region of the log—linear plot.

[2] = Cornea Homogenate Conc 0.15 mg/mL
[3] = Cornea Homogenate Conc 0.45 mg/mL

| Structure (SMILES) | API Formation rate (Rabbit Cornea Homogenate; [2]) | Esterase % Lifitegrast formation at 45 min (Rabbit Cornea Homogenate; [2]) | API Formation rate (Rabbit Cornea Homogenate; [3]) | Esterase % Lifitegrast formation at 45 min (Rabbit Cornea Homogenate; [3]) | Hydrolytic % Lifitegrast formation at [time] ([1]; at 45 min) | Hydrolytic % Lifitegrast formation at [time] ([1]; at 192 min) | Hydrolytic % Lifitegrast formation at [time] ([1]; at 142 min) |
| --- | --- | --- | --- | --- | --- | --- | --- |
| CC(OC(=O)[C@H](Cc1cccc(S(C)(=O)=O)c1)NC(=O)c1c(Cl)cc2c(c1Cl)CCN(C(=O)c1ccc3ccoc3c1)C2)OC(=O)[C@@H](C)O (stereo partly drawn) [Comp 18, 1-(((R)-2-hydroxypropanoyl)oxy) ethyl (2S)-2-(2-(benzofuran-6-carbonyl)-5,7-dichloro-1,2,3,4-tetrahydroisoquinoline-6-carboxamido)-3-(3-(methylsulfonyl)phenyl) propanoate] | c (API formation rate 1.0-1.5%/min) | C (percent API formation 51% to 75%) | d (API formation rate>1.5%/min) | D (percent API formation>75%) | C [45 min] (percent API formation>4%) |  |  |
| CCOC(=O)OC(C)OC(=O)[C@H](Cc1cccc(S(C)(=O)=O)c1)NC(=O)c1c(Cl)cc2c(c1Cl)CCN(C(=O)c1ccc3ccoc3c1)C2 (stereo partly drawn) [Comp 4, 1-((ethoxycarbonyl)oxy)ethyl (2S)-2-(2-(benzofuran-6-carbonyl)-5,7-dichloro-1,2,3,4-tetrahydroisoquinoline-6-carboxamido)-3-(3-(methylsulfonyl)phenyl) propanoate] | b (API formation rate 0.5-1.0%/min) | B (percent API formation 25% to 50%) | c (API formation rate 1.0-1.5%/min) | C (percent API formation 51% to 75%) | B [45 min] (percent API formation 1.5-4%) |  |  |
| Cc1ccccc1OCC(=O)N[C@@H](CC(C)C)C(=O)N[C@@H](Cc1ccc(OC(=O)N2CCC(C(N)=O)CC2)cc1)C(=O)OC(C)OC(=O)OC(C)C (stereo partly drawn) [Comp 2, 4-((2S)-3-(1-((isopropoxycarbonyl)oxy)ethoxy)-2-((S)-4-methyl-2-(2-(o-tolyloxy)acetamido)pentan-amido)-3-oxopropyl)phenyl 4-carbamoylpiperidine-1-carboxylate] | b (API formation rate 0.5-1.0%/min) | B (percent API formation 25% to 50%) | c (API formation rate 1.0-1.5%/min) | C (percent API formation 51% to 75%) |  | A [192 min] (percent active pharmaceutical ingredient (API) formation<1.5%) |  |
| CC(OC(=O)CO)OC(=O)[C@H](Cc1cccc(S(C)(=O)=O)c1)NC(=O)c1c(Cl)cc2c(c1Cl)CCN(C(=O)c1ccc3ccoc3c1)C2 (stereo partly drawn) [Comp 19, 1-(2-hydroxyacetoxy)ethyl (2S)-2-(2-(benzofuran-6-carbonyl)-5,7-dichloro-1,2,3,4-tetrahydroisoquinoline-6-carboxamido)-3-(3-(methylsulfonyl)phenyl) propanoate] | b (API formation rate 0.5-1.0%/min) | B (percent API formation 25% to 50%) | b (API formation rate 0.5-1.0%/min) | B (percent API formation 25% to 50%) | B [45 min] (percent API formation 1.5-4%) |  |  |
| CCC(=O)OC(C)OC(=O)[C@H](Cc1cccc(S(C)(=O)=O)c1)NC(=O)c1c(Cl)cc2c(c1Cl)CCN(C(=O)c1ccc3ccoc3c1)C2 (stereo partly drawn) [Comp 15, 1-(propionyloxy)ethyl (2S)-2-(2-(benzofuran-6-carbonyl)-5,7-dichloro-1,2,3,4-tetrahydroisoquinoline-6-carboxamido)-3-(3-(methylsulfonyl)phenyl) propanoate] | d (API formation rate>1.5%/min) | C (percent API formation 51% to 75%) | d (API formation rate>1.5%/min) | D (percent API formation>75%) | B [45 min] (percent API formation 1.5-4%) |  |  |
| CC(OC(=O)[C@H](Cc1cccc(S(C)(=O)=O)c1)NC(=O)c1c(Cl)cc2c(c1Cl)CCN(C(=O)c1ccc3ccoc3c1)C2)OC(=O)C(C)(C)C (stereo partly drawn) [Comp 17, 1-(((S)-2-(2-(benzofuran-6-carbonyl)-5,7-dichloro-1,2,3,4-tetrahydroisoquinoline-6-carboxamido)-3-(3-(methylsulfonyl)phenyl)propanoyl)oxy)ethyl pivalate] | b (API formation rate 0.5-1.0%/min) | B (percent API formation 25% to 50%) | c (API formation rate 1.0-1.5%/min) | C (percent API formation 51% to 75%) | A [45 min] (percent active pharmaceutical ingredient (API) formation<1.5%) |  |  |
| CC(OC(=O)OC(C)(C)C)OC(=O)[C@H](Cc1cccc(S(C)(=O)=O)c1)NC(=O)c1c(Cl)cc2c(c1Cl)CCN(C(=O)c1ccc3ccoc3c1)C2 (stereo partly drawn) [Comp 6, 1-((tert-butoxycarbonyl)oxy)ethyl (2S)-2-(2-(benzofuran-6-carbonyl)-5,7-dichloro-1,2,3,4-tetrahydroisoquinoline-6-carboxamido)-3-(3-(methylsulfonyl)phenyl) propanoate] | a (API formation rate<0.5%/min) | A (percent active pharmaceutical ingredient (API) formation<25%) | b (API formation rate 0.5-1.0%/min) | B (percent API formation 25% to 50%) |  |  | C [142 min] (percent API formation>4%) |
| CC(OC(=O)OCC(COC(=O)[C@@H](C)O)COC(=O)[C@@H](C)O)OC(=O)[C@H](Cc1cccc(S(C)(=O)=O)c1)NC(=O)c1c(Cl)cc2c(c1Cl)CCN(C(=O)c1ccc3ccoc3c1)C2 (stereo partly drawn) [Comp 13, 2-((8S)-10-(2-(benzofuran-6-carbonyl)-5,7-dichloro-1,2,3,4-tetrahydroisoquinolin-6-yl)-5-methyl-8-(3-(methylsulfonyl)benzyl)-3,7,10-trioxo-2,4,6-trioxa-9-azadecyl)propane-1,3-diyl (2R,2'R)-bis(2-hydroxypropanoate)] | a (API formation rate<0.5%/min) | A (percent active pharmaceutical ingredient (API) formation<25%) | a (API formation rate<0.5%/min) | A (percent active pharmaceutical ingredient (API) formation<25%) |  |  |  |
| CCOC(=O)[C@@H](C)OC(=O)OC(C)OC(=O)[C@H](Cc1cccc(S(C)(=O)=O)c1)NC(=O)c1c(Cl)cc2c(c1Cl)CCN(C(=O)c1ccc3ccoc3c1)C2 (stereo partly drawn) [Comp 8, 1-(((((R)-1-ethoxy-1-oxopropan-2-yl)oxy)carbonyl)oxy)ethyl (2S)-2-(2-(benzofuran-6-carbonyl)-5,7-dichloro-1,2,3,4-tetrahydroisoquinoline-6-carboxamido)-3-(3-(methylsulfonyl)phenyl) propanoate] | b (API formation rate 0.5-1.0%/min) | B (percent API formation 25% to 50%) | d (API formation rate>1.5%/min) | C (percent API formation 51% to 75%) | A [45 min] (percent active pharmaceutical ingredient (API) formation<1.5%) |  |  |
| CC(OC(=O)C(C)C)OC(=O)[C@H](Cc1cccc(S(C)(=O)=O)c1)NC(=O)c1c(Cl)cc2c(c1Cl)CCN(C(=O)c1ccc3ccoc3c1)C2 (stereo partly drawn) [Comp 16, 1-(isobutyryloxy)ethyl (2S)-2-(2-(benzofuran-6-carbonyl)-5,7-dichloro-1,2,3,4-tetrahydroisoquinoline-6-carboxamido)-3-(3-(methylsulfonyl)phenyl) propanoate] | d (API formation rate>1.5%/min) | D (percent API formation>75%) | d (API formation rate>1.5%/min) | D (percent API formation>75%) |  |  | C [142 min] (percent API formation>4%) |
